From US12103916B2, “Antifungal compounds” (University of Kentucky Research Foundation, priority 2016, dated 2024)
Where two headings read alike, the source gives them in different places. Marks after values point to notes of the source that are not given here.

Assays:
[1] = test system: cell membrane integrity of C. albicans ATCC 10231 (strain A); test: Membrane permeabilization assay (propidium iodide uptake); assay type: cell-based, Candida albicans; conditions: Ex.3 series; 4×MIC
Method: FIG. 20 includes the Effect of the controls VOR (negative) and KANB (C14) (positive) as well as compounds 5-9 on the cell membrane integrity of C. albicans ATCC 10231 (strain A). […] The experiments were performed in duplicate.
PI is a membrane impermeable dye that cannot enter the intact cell unless the cell membrane is damaged. Using these compounds, we also wanted to determine how do the lengths of the alkyl side chains correlate with the membrane disruption potential of these antifungal agents.
Membrane permeabilization assay. […] Based on these findings, we assumed that the hybrids generated in this study could also potentially cause fungal death by disrupting the fungal membrane. To investigate this possible mechanism of action, we evaluated the effect of compounds 20 and 26 on fungal cell membrane integrity by using propidium iodide (PI) dye as a probe (FIG. 12). […] Afterwards, the dye binds to nucleic acid and fluoresces, which can be observed under a fluorescence microscope. […]
Therefore, we decided to study the potential effect of compounds 8 and 9 with C12 and C14 linear alkyl chains to determine the impact of chain length on membrane disruption (FIG. 20). […] The propidium iodide (PI) dye was used as a probe as it can only enter cells with compromised membrane and bind to nucleic acid to emit fluorescence, which can be observed under a fluorescence microscope. […]

[2] = test system: C. albicans ATCC MYA-1237(R); test: MIC determination, strain F; assay type: cell-based, Candida albicans; conditions: Candida albicans
Excerpt: For all of our azole derivatives we report their MIC-0 values against C. albicans ATCC 10231 (strain A) and all Aspergillus strains (K-M), which correspond to complete growth inhibition of these fungi. […] The MIC values presented for these five control drugs were either tested herein or correspond to our previously published data^5, 16 as indicated in Table 1.
Antifungal activity in the absence or presence of serum.
(§1) It is important to note that all comparisons to follow will be done by using the MIC values reported in μg/mL as the data were collected that way. However, we also present in parentheses in Table 2 the corresponding values in micromolar.
In this manuscript, we performed all activity comparisons by using the MIC values reported in μg/mL (Note: the corresponding MIC values are also provided in μM into parentheses in Tables 1, 2, S1, and S2).

C. albicans ATCC 64124 [3] = conditions: Table 1; strain B; control azoles; previously reported (refs 5, 16); cited from earlier work
Candida krusei ATCC 6258 = conditions: Table 1; strain I; control azoles; previously reported (refs 5, 16); cited from earlier work
[4] = test system: Candida glabrata ATCC 2001; test: MIC determination, strain H; assay type: cell-based; conditions: Nakaseomyces glabratus, ATCC2001
Method: (§2) The antifungal activity of our new azole compounds 1-9 and 24-41 was first evaluated against a panel of seven Candida albicans strains (A-G), three non-albicans Candida strains […], and three Aspergillus strains (K-M) in a concentration range of 0.03-31.2 μg/mL (Table 1). […] For all of our azole derivatives we report their MIC-0 values against C. albicans ATCC 10231 (strain A) and all Aspergillus strains (K-M), which correspond to complete growth inhibition of these fungi. […] The commercially available antifungals AmB, FLC, ITC, POS, and VOR were used as reference drugs for comparison. The MIC values presented for these five control drugs were either tested herein or correspond to our previously published data^5, 16 as indicated in Table 1.
(§3) Antifungal activity in the absence or presence of serum. The antifungal activity of the newly prepared alkylated piperazine/morpholine-azole hybrids 16-28, of intermediate 14 that we used to verify that only final compounds exert antifungal activity, as well as that of alkylated piperazine/morpholine derivatives 1-10 were first evaluated against a panel of seven C. albicans (ATCC 10231 (A), ATCC 64124(R) (B), ATCC MYA-2876(S) (C), ATCC 90819(R) (D), ATCC MYA-2310(S) (E), ATCC MYA-1237(R) (F), and ATCC MYA-1003(R) (G)), three non-albicans Candida (C. glabrata ATCC 2001 (H), C. krusei ATCC 6258 (I), and C. parapsilosis ATCC 22019 (J)), and three Aspergillus (A. flavus ATCC MYA-3631 (K), A. nidulans ATCC 38163 (L), and A. terreus ATCC MYA-3633 (M)) strains using a concentration range of 0.03-31.3 μg/mL (Table 2).
as §1, with “Commercially available antifungal agents such as AmB, CAS, FLC, and VOR were used as positive controls for comparison. […] It” for “It”
(§4) We used the commercially available antifungal agents such as AmB, caspofungin (CAS), FLC, and VOR as positive controls for comparison. For derivatives 5-16 as well as the reference drugs AmB and CAS, we reported MIC-0 values, which correspond to no visible growth. […] In this manuscript, we performed all activity comparisons by using the MIC values reported in μg/mL (Note: the corresponding MIC values are also provided in μM into parentheses in Tables 1, 2, S1, and S2).

C. albicans ATCC 64124 [5] = test: MIC determination, strain B; assay type: cell-based, Candida albicans; conditions: Candida albicans, ATCC64124
Method: as §2, §3
as §1, with “Commercially available antifungal agents such as AmB, CAS, FLC, and VOR were used as positive controls for comparison. […] It” for “It”
as §4

[6] = test system: Aspergillus nidulans ATCC 38163; conditions: Table 1; strain L; control azoles; previously reported (refs 5, 16); cited from earlier work
[7] = test system: C. albicans ATCC MYA-2876(S); conditions: Table 1; strain C; control azoles; previously reported (refs 5, 16); cited from earlier work
[8] = test system: C. albicans ATCC MYA-2310(S); conditions: Table 1; strain E; control azoles; previously reported (refs 5, 16); cited from earlier work
[9] = read-out: MIC (MIC-2), in parentheses

C[C@@H](c1ncncc1F)[C@](O)(Cn1cncn1)c1ccc(F)cc1F [VOR, voriconazole]
PI dye uptake by fungal cells [1]: did not allow for PI uptake | MIC ([2]; read-out: MIC (MIC-2)): 7.8 µg/mL | MIC [2, 9]: 22.3 µM | MIC (MIC-2) (C. albicans ATCC 64124 [3]): 3.9^c μg/mL | MIC (MIC-2) (Candida krusei ATCC 6258): 0.12^c μg/mL | MIC ([4]; read-out: MIC (MIC-2)): 0.06 µg/mL | MIC [4, 9]: 0.17 µM | MIC (C. albicans ATCC 64124 [5]; read-out: MIC (MIC-2)): 3.9 µg/mL | MIC (C. albicans ATCC 64124 [5]; [9]): 11.2 µM | MIC (MIC-2) [6]: 0.03^c μg/mL | MIC (MIC-2) [7]: 1.95^c μg/mL | MIC (MIC-2) [8]: 0.975^c μg/mL
